Results: US20220402950A1, “SUBSTITUTED BENZIMIDAZOLES AS PAD4 INHIBITORS” (BRISTOL-MYERS SQUIBB COMPANY, priority 2018, published 2022)

molecular target: human PAD4 (hPAD4) (Homo sapiens, UniProt Q9UM07); assay: RFMS Human PAD4 Functional Assay; assay type: biochemical; settings: hPAD4 RFMS IC50, human PAD4, rapid-fire mass spectrum (RFMS) assay; 5 nM hPAD4, 250 μM BAEE
Method in brief: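 RapidFire ESI-MS quantification, normalised to a modified-citrulline internal standard, after phenyl glyoxal (final 4 mM) derivatisation of the TCA-quenched reaction. The enzyme (10 nM) sat 30 min with compound (up to 50 μM final) before 500 μM BAEE (as added) started a 90 min, 37 °C reaction. Buffer: HEPES pH 7.5, 50 μM calcium, 5 μM TPEN.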

Sequence of human PAD4 (hPAD4) (Q9UM07 whole entry): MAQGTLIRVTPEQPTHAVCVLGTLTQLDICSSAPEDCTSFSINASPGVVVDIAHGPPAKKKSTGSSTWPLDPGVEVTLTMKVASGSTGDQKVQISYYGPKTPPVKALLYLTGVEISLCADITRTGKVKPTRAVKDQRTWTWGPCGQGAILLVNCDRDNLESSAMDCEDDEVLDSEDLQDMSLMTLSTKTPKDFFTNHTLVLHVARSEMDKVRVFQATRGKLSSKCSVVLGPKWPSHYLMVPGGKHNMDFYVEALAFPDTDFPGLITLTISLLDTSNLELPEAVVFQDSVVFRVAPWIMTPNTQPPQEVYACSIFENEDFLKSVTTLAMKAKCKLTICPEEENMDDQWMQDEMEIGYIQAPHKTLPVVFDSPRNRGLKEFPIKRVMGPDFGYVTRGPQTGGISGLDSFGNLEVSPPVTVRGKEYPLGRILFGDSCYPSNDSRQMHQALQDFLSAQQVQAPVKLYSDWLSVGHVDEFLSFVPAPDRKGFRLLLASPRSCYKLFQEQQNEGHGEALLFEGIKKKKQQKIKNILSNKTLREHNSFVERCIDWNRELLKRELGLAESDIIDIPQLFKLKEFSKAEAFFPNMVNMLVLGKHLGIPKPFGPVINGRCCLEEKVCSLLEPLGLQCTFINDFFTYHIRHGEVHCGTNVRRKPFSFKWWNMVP

| SMILES | IC50 |
| --- | --- |
| COc1cc(C(=O)N2C[C@H]3CC[C@@H]2[C@@H]3N)cc2nc(-c3cc4cccc(-c5ccc(C(=O)N(C)C)cc5)c4n3CC3CC3)n(C)c12 [Example 125, 4-(2-(5-((1R,4R,7R)-7-amino-2-azabicyclo[2.2.1]heptane-2-carbonyl)-7-methoxy-1-methyl-1H-benzo[d]imidazol-2-yl)-1-(cyclopropylmethyl)-1H-indol-7-yl)-N,N-dimethylbenzamide] | 125 nM |
| COc1cc(C(=O)N2C[C@H]3CC[C@@H]2[C@@H]3N)cc2nc(-c3cc4cccc(C5CC(N)C5)c4n3CC3CC3)n(C)c12 (stereo partly drawn) [Example 9, (1R,4R,7R)-2-{2-[7-(3-aminocyclobutyl)-1-(cyclopropylmethyl)-1H-indol-2-yl]-7-methoxy-1-methyl-1H-1,3-benzodiazole-5-carbonyl}-2-azabicyclo[2.2.1]heptan-7-amine] | 40 nM |
| COCC(=O)N1CCC(c2cccc3cc(-c4nc5cc(C(=O)N6C[C@H]7CC[C@@H]6[C@@H]7N)cc(OC)c5n4C)n(CC4CC4)c23)CC1 [Example 230, 1-(4-(2-(5-((1R,4R,7R)-7-amino-2-azabicyclo[2.2.1]heptane-2-carbonyl)-7-methoxy-1-methyl-1H-benzo[d]imidazol-2-yl)-1-(cyclopropylmethyl)-1H-indol-7-yl)piperidin-1-yl)-2-methoxyethan-1-one] | 21 nM |
| COc1cc(C(=O)N2C[C@H](N)C[C@@H](F)C2)cc2nc(-c3cc4cccc(-c5ccc6c(c5)CNC6=O)c4n3CC3CC3)n(C)c12 [Example 209, 5-(2-(5-((3R,5R)-3-amino-5-fluoropiperidine-1-carbonyl)-7-methoxy-1-methyl-1H-benzo[d]imidazol-2-yl)-1-(cyclopropylmethyl)-1H-indol-7-yl)isoindolin-1-one] | 69 nM |
| COc1cc(C(=O)N2C[C@H]3CC[C@@H]2[C@@H]3N)cc2nc(-c3cc4cccc(C5CCN(C(=O)CO)CC5)c4n3CC3CC3)n(C)c12 [Example 240, 1-(4-(2-(5-((1R,4R,7R)-7-amino-2-azabicyclo[2.2.1]heptane-2-carbonyl)-7-methoxy-1-methyl-1H-benzo[d]imidazol-2-yl)-1-(cyclopropylmethyl)-1H-indol-7-yl)piperidin-1-yl)-2-hydroxyethan-1-one] | 15 nM |
| COc1cc(C(=O)N2C[C@H]3CC[C@@H]2[C@@H]3N)cc2nc(-c3cc4cccc(-c5cn[nH]c5)c4n3CC3CC3(Cl)Cl)n(C)c12 (stereo partly drawn) [Example 151, ((1R,4R,7R)-7-amino-2-azabicyclo[2.2.1]heptan-2-yl)(2-(1-((2,2-dichlorocyclopropyl)meth-yl)-7-(1H-pyrazol-4-yl)-1H-indol-2-yl)-7-methoxy-1-methyl-1H-benzo[d]imidazol-5-yl)methanone] | 104 nM |
| [2H]C([2H])([2H])N(C(=O)C1CC(c2cccc3cc(-c4nc5cc(C(=O)N6C[C@H]7CC[C@@H]6[C@@H]7N)cc(OC)c5n4C)n(CC4CC4)c23)C1)C([2H])([2H])[2H] (single isomer, unassigned; isomer 2) [Example 196] | 53 nM |
| COc1cc(C(=O)N2C[C@H]3CC[C@@H]2[C@@H]3N)cc2nc(-c3cc4cccc(C5CCN(C(=O)COc6ccccc6)CC5)c4n3CC3CC3)n(C)c12 [Example 235, 1-(4-(2-(5-((1R,4R,7R)-7-amino-2-azabicyclo[2.2.1]heptane-2-carbonyl)-7-methoxy-1-methyl-1H-benzo[d]imidazol-2-yl)-1-(cyclopropylmethyl)-1H-indol-7-yl)piperidin-1-yl)-2-phenoxyethan-1-one] | 58 nM |
| COc1cc(-c2cccc3cc(-c4nc5cc(C(=O)N6C[C@H]7CC[C@@H]6[C@@H]7N)cc(OC)c5n4C)n(CC4CC4)c23)ccc1O [Example 91, 4-(2-{5-[(1R,4R,7R)-7-amino-2-azabicyclo[2.2.1]heptane-2-carbonyl]-7-methoxy-1-methyl-1H-1,3-benzodiazol-2-yl}-1-(cyclopropylmethyl)-1H-indol-7-yl)-2-methoxyphenol] | 42 nM |
| COc1cc(C(=O)N2C[C@H]3CC[C@@H]2[C@@H]3N)cc2nc(-c3cc4cccc(C5CN(S(=O)(=O)c6ccccc6)C5)c4n3CC3CC3)n(C)c12 [Example 83, (1R,4R,7R)-2-(2-{7-[1-(benzenesulfonyl)azetidin-3-yl]-1-(cyclopropylmethyl)-1H-indol-2-yl}-7-methoxy-1-methyl-1H-1,3-benzodiazole-5-carbonyl)-2-azabicyclo[2.2.1]heptan-7-amine] | 123 nM |
| C#CCOCC(O)Cn1cc(-c2cccc3cc(-c4nc5cc(C(=O)N6CC7CCC6[C@@H]7N)cc(OC)c5n4C)n(CC4CC4)c23)cn1 (stereo partly drawn) [Example 128, ((7R)-7-amino-2-azabicyclo[2.2.1]heptan-2-yl)(2-(1-(cyclopropylmethyl)-7-(1-(2-hydroxy-3-(prop-2-yn-1-yloxy)propyl)-1H-pyrazol-4-yl)-1H-indol-2-yl)-7-methoxy-1-methyl-1H-benzo[d]imidazol-5-yl)methanone] | 130 nM |
| COc1cc(C(=O)N2C[C@H]3CC[C@@H]2[C@@H]3N)cc2nc(-c3cc4cccc(-c5cnn(CC(C)(C)O)c5)c4n3CC3CC3)n(C)c12 [Example 140, ((1R,4R,7R)-7-amino-2-azabicyclo[2.2.1]heptan-2-yl)(2-(1-(cyclopropylmethyl)-7-(1-(2-hydroxy-2-methylpropyl)-1H-pyrazol-4-yl)-1H-indol-2-yl)-7-methoxy-1-methyl-1H-benzo[d]imidazol-5-yl)methanone] | 106 nM |
| COc1cc(C(=O)N2C[C@H](N)C[C@@H](F)C2)cc2nc(-c3cc4cccc(C5CC(C(=O)N(C)C)C5)c4n3CC3CC3)n(C)c12 (single isomer, unassigned) [Example 117] | 117 nM |
| COc1cc(C(=O)N2C[C@H]3CC[C@@H]2[C@@H]3N)cc2nc(-c3cc4cccc(C5CCN(C(=O)NC6CC6)CC5)c4n3CC3CC3)n(C)c12 [Example 249, 4-(2-(5-((1R,4R,7R)-7-amino-2-azabicyclo[2.2.1]heptane-2-carbonyl)-7-methoxy-1-methyl-1H-benzo[d]imidazol-2-yl)-1-(cyclopropylmethyl)-1H-indol-7-yl)-N-cyclopropylpiperidine-1-carboxmaide] | 8 nM |
| COc1cc(C(=O)N2C[C@H]3CC[C@@H]2[C@@H]3N)cc2nc(-c3cc4cccc(C5CN(C(=O)CCO)C5)c4n3CC3CC3)n(C)c12 [Example 80, 1-[3-(2-{5-[(1R,4R,7R)-7-amino-2-azabicyclo[2.2.1]heptane-2-carbonyl]-7-methoxy-1-methyl-1H-1,3-benzodiazol-2-yl}-1-(cyclopropylmethyl)-1H-indol-7-yl)azetidin-1-yl]-3-hydroxypropan-1-one] | 16 nM |
| COc1cc(C(=O)N2C[C@H]3CC[C@@H]2[C@@H]3N)cc2nc(-c3cc4cccc(C5CNC5)c4n3CC3CC3)n(C)c12 [Example 8, (1R,4R,7R)-2-{2-[7-(azetidin-3-yl)-1-(cyclopropylmethyl)-1H-indol-2-yl]-7-methoxy-1-methyl-1H-1,3-benzodiazole-5-carbonyl}-2-azabicyclo[2.2.1]heptan-7-amine] | 73 nM |
| COc1cc(C(=O)N2C[C@H]3CC[C@@H]2[C@@H]3N)cc2nc(-c3cc4cccc(-c5ccccc5C#N)c4n3CC3CC3C)n(C)c12 (stereo partly drawn) [Example 155, 2-(2-(5-((1R,4R,7R)-7-amino-2-azabicyclo[2.2.1]heptane-2-carbonyl)-7-methoxy-1-methyl-1H-benzo[d]imidazol-2-yl)-1-((2-methylcyclopropyl)meth-yl)-1H-indol-7-yl)benzonitrile] | 171 nM |
| CCCc1cccc2cc(-c3nc4cc(C(=O)N5C[C@H]6CC[C@@H]5[C@@H]6N)cc(OC)c4n3C)n(CC3CC3)c12 [Example 5, (1R,4R,7R)-2-{2-[1-(cyclopropylmethyl)-7-propyl-1H-indol-2-yl]-7-methoxy-1-methyl-1H-1,3-benzodiazole-5-carbonyl}-2-azabicyclo[2.2.1]heptan-7-amine] | 187 nM |

same assay, conditions: human PAD4, rapid-fire mass spectrum (RFMS) assay; 5 nM hPAD4, 250 μM BAEE; read-out: hPAD4 RFMS IC50

| SMILES | IC50 |
| --- | --- |
| COc1cc(C(=O)N2C[C@H]3CC[C@@H]2[C@@H]3N)cc2nc(-c3cc4cccc(-c5ccccc5O)c4n3CC3CC3)n(C)c12 [Example 87, 2-(2-{5-[(1R,4R,7R)-7-amino-2-azabicyclo[2.2.1]heptane-2-carbonyl]-7-methoxy-1-methyl-1H-1,3-benzodiazol-2-yl}-1-(cyclopropylmethyl)-1H-indol-7-yl)phenol] | 111 nM |
| COc1cc(C(=O)N2C[C@H]3CC[C@@H]2[C@@H]3N)cc2nc(-c3cc4cccc(CCCC(=O)O)c4n3CC3CC3)n(C)c12 [Example 60, 4-(2-{5-[(1R,4R,7R)-7-amino-2-azabicyclo[2.2.1]heptane-2-carbonyl]-7-methoxy-1-methyl-1H-1,3-benzodiazol-2-yl}-1-(cyclopropylmethyl)-1H-indol-7-yl)butanoic Acid] | 108 nM |
| COc1cc(C(=O)N2C[C@H]3CC[C@@H]2[C@@H]3N)cc2nc(-c3cc4cccc(-c5ccc(O)c(C(=O)O)c5)c4n3CC3CC3)n(C)c12 [Example 121, 5-(2-(5-((1R,4R,7R)-7-amino-2-azabicyclo[2.2.1]heptane-2-carbonyl)-7-methoxy-1-methyl-1H-benzo[d]imidazol-2-yl)-1-(cyclopropylmethyl)-1H-indol-7-yl)-2-hydroxybenzoic Acid] | 753 nM |
| COc1cc(C(=O)N2C[C@H](N)CC[C@@H]2C)cc2nc(-c3cc4cccc(C5CN(C(C)=O)C5)c4n3CC3CC3)n(C)c12 [Example 42, 1-(3-(2-(5-((2S,5R)-5-amino-2-methylpiperidine-1-carbonyl)-7-methoxy-1-methyl-1H-benzo[d]imidazol-2-yl)-1-(cyclopropylmethyl)-1H-indol-7-yl)azetidin-1-yl)ethan-1-one] | 141 nM |
| COc1cc(C(=O)N2C[C@H](N)C[C@@H](F)C2)cc2nc(-c3cc4cccc(OC)c4n3CC3CC3)n(C)c12 [Example 185, ((3R,5R)-3-amino-5-fluoropiperidin-1-yl)(2-(1-(cyclopropylmethyl)-7-methoxy-1H-indol-2-yl)-7-methoxy-1-methyl-1H-benzo[d]imidazol-5-yl)methanone] | 133 nM |
